Experimental data as given in patent US6221865A, “Inhibitors of protein isoprenyl transferases” (priority 1998, dated 2001).

Target: T1, protein farnesyltransferase (Rattus norvegicus, UniProt Q02293+Q04631)
T1 construct: The enzyme is purified according to Reiss, Y., et al., Cell, 62: 81-88 (1990), utilizing steps one through three; from tissue; host or cells: rat brain
Test: Inhibition of farnesyltransferase (scintillation proximity assay, rat brain enzyme, biotin-K Ras B fragment substrate)
Type: biochemical
Conditions: for % inhibition of farnesyltransferase at 1 × 10^-7 M: 1 × 10^-7 M (Table 3); for % inhibition of farnesyltransferase at 1 × 10^-8 M: 1 × 10^-8 M (Table 4); for % inhibition of farnesyltransferase at 1 × 10^-6 M: 1 × 10^-6 M (Table 2); for % inhibition of farnesyltransferase at 1 × 10^-5 M: 1 × 10^-5 M (Table 1)
Summary of the method: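 Enzyme from rat brain, partly purified (steps one to three), assayed by SPA kit using 0.1 mM final biotin-K Ras B peptide as prenyl acceptor rather than biotin-lamin. Activity given as percent inhibition.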

T1 sequence (Q02293 whole entry, one chain of several): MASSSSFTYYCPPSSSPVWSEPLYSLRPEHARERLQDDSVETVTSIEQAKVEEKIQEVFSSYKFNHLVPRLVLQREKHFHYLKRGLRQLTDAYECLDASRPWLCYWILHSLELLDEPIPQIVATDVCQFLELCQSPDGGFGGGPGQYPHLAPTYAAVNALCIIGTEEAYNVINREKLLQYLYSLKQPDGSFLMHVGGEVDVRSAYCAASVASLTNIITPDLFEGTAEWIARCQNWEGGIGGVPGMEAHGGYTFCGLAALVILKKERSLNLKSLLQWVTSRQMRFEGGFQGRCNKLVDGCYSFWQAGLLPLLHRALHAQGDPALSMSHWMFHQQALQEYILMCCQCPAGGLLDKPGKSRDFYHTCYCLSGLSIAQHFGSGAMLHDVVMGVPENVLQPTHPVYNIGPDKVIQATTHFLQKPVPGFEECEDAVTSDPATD

Row | Compound | % inhibition of farnesyltransferase at 1 × 10^-6 M [%] | other results
1 | CSCC[C@H](NC(=O)c1ccc(COCCCCc2ccccc2)cc1-c1ccccc1C)C(=O)O [Example 601] |  | % inhibition of farnesyltransferase at 1 × 10^-7 M: 92%
2 | CSCC[C@H](NC(=O)c1ccc(CN[C@@H](CO)C2CCCCC2)cc1-c1ccccc1C)C(=O)O [Example 604] |  | % inhibition of farnesyltransferase at 1 × 10^-7 M: 86%
3 | CSCC[C@H](NC(=O)c1ccc(CN(CCC2CCCCC2)Cc2ccccc2)cc1-c1ccccc1C)C(=O)[O-].[Li+] [Example 605] |  | % inhibition of farnesyltransferase at 1 × 10^-8 M: 68%
4 | CCSC[C@H](CC1CCCCC1)OCc1ccc(C(=O)N[C@@H](CCSC)C(=O)O)c(-c2ccccc2C)c1 [Example 606] |  | % inhibition of farnesyltransferase at 1 × 10^-8 M: 93%
5 | CSCC[C@H](NC(=O)c1ccc(CNCCC2CCCCC2)cc1-c1ccccc1C)C(=O)O.O=C(O)C(F)(F)F [Example 607] | 96 | 
6 | CSCC[C@H](NC(=O)c1ccc(CN(C)CCC2CCCCC2)cc1-c1ccccc1C)C(=O)[O-].[Li+] [Example 608] |  | % inhibition of farnesyltransferase at 1 × 10^-8 M: 91%
7 | CSCC[C@H](NC(=O)c1ccc(CN(CCC2CCCCC2)C(C)=O)cc1-c1ccccc1C)C(=O)[O-].[Li+] [Example 609] |  | % inhibition of farnesyltransferase at 1 × 10^-7 M: 95%
8 | CSCC[C@H](NC(=O)c1ccc(CN(CCC2CCCCC2)C(=O)N(C)C)cc1-c1ccccc1C)C(=O)O [Example 610] | 94 | 
9 | CSCC[C@H](NC(=O)c1ccc(CN(CCC2CCCCC2)S(C)(=O)=O)cc1-c1ccccc1C)C(=O)O [Example 611] |  | % inhibition of farnesyltransferase at 1 × 10^-7 M: 95%
10 | CSCC[C@H](NC(=O)c1ccc(CN(CCC2CCCCC2)S(=O)(=O)c2ccccc2)cc1-c1ccccc1C)C(=O)O [Example 612] |  | % inhibition of farnesyltransferase at 1 × 10^-8 M: 96%
11 | CSCC[C@H](NC(=O)c1ccc(CN[C@H](C)CC2CCCCC2)cc1-c1ccccc1C)C(=O)O [Example 613] | 97 | 
12 | CC[C@H](CC1CCCCC1)NCc1ccc(C(=O)N[C@@H](CCSC)C(=O)O)c(-c2ccccc2C)c1 [Example 614] |  | % inhibition of farnesyltransferase at 1 × 10^-8 M: 92%
13 | CCCC[C@H](CC1CCCCC1)NCc1ccc(C(=O)N[C@@H](CCSC)C(=O)O)c(-c2ccccc2C)c1 [Example 615] |  | % inhibition of farnesyltransferase at 1 × 10^-7 M: 94%
14 | CSCC[C@H](NC(=O)c1ccc(CNC(CC2CCCCC2)C2CCCCC2)cc1-c1ccccc1C)C(=O)[O-].[Li+] (stereo partly drawn) [Example 616] |  | % inhibition of farnesyltransferase at 1 × 10^-7 M: 95%
15 | CSCC[C@H](NC(=O)c1ccc(CN[C@H](CO)CC2CCCCC2)cc1-c1ccccc1C)C(=O)O [Example 617] | 99 | 
16 | CSCC[C@H](NC(=O)c1ccc(CN[C@@H](CO)CC2CCCCC2)cc1-c1ccccc1C)C(=O)O [Example 618] |  | % inhibition of farnesyltransferase at 1 × 10^-7 M: 89%
17 | C=C[C@H](CC1CCCCC1)NCc1ccc(C(=O)N[C@@H](CCSC)C(=O)O)c(-c2ccccc2C)c1 [Example 619] |  | % inhibition of farnesyltransferase at 1 × 10^-8 M: 95%

Row | Compound | % inhibition of farnesyltransferase at 1 × 10^-6 M [%] | other results
18 | CCS(=O)(=O)C[C@H](CC1CCCCC1)NCc1ccc(C(=O)N[C@@H](CCSC)C(=O)O)c(-c2ccccc2C)c1 [Example 620] | 98 | 
19 | CCS(=O)(=O)C[C@H](CC1CCCCC1)NCc1ccc(C(=O)N[C@@H](CCS(C)(=O)=O)C(=O)O)c(-c2ccccc2C)c1 [Example 621] |  | % inhibition of farnesyltransferase at 1 × 10^-7 M: 98%
20 | CSCC[C@H](NC(=O)c1ccc(CN[C@H](CSC(C)(C)C)CC2CCCCC2)cc1-c1ccccc1C)C(=O)O [Example 622] |  | % inhibition of farnesyltransferase at 1 × 10^-7 M: 95%
21 | CSCC[C@H](NC(=O)c1ccc(CN[C@H](CSc2ccccc2)CC2CCCCC2)cc1-c1ccccc1C)C(=O)O [Example 623] |  | % inhibition of farnesyltransferase at 1 × 10^-7 M: 96%
22 | CSCC[C@H](NC(=O)c1ccc(CNCCS)cc1-c1ccccc1)C(=O)O [Example 626] | 61 | 
23 | CSCC[C@H](NC(=O)c1ccc(CNCCSC(C)(C)C)cc1-c1ccccc1)C(=O)O [Example 627] | 85 | 
24 | CSCC[C@H](NC(=O)c1ccc(CNCC(O)CO)cc1-c1ccccc1)C(=O)O (stereo partly drawn) [Example 632] | 43 | 
25 | CSCCC(CO)NCc1ccc(C(=O)N[C@@H](CCSC)C(=O)O)c(-c2ccccc2)c1 (stereo partly drawn) [Example 633] | 32 | 
26 | CSCC[C@H](NC(=O)c1ccc(CNCCN(C(C)C)C(C)C)cc1-c1ccccc1)C(=O)O [Example 636] | 72 | 
27 | CSCC[C@H](NC(=O)c1ccc(CNCC(C)(C)CN(C)C)cc1-c1ccccc1)C(=O)O [Example 639] |  | % inhibition of farnesyltransferase at 1 × 10^-5 M: 44%
28 | CSCC[C@H](NC(=O)c1ccc(CNCCN2CCCC2)cc1-c1ccccc1)C(=O)O [Example 641] | 34 | 
29 | CSCC[C@H](NC(=O)c1ccc(CNc2ccccc2F)cc1-c1ccccc1)C(=O)O [Example 642] | 48 | 
30 | CSCC[C@H](NC(=O)c1ccc(CNc2ccccc2C(N)=O)cc1-c1ccccc1)C(=O)O [Example 644] | 54 | 
31 | CSCC[C@H](NC(=O)c1ccc(CNc2ccccc2Oc2ccccc2)cc1-c1ccccc1)C(=O)O [Example 645] | 37 | 
32 | COc1cc2c(cc1OC)C(CNCc1ccc(C(=O)N[C@@H](CCSC)C(=O)O)c(-c3ccccc3)c1)=CC(C1CCCCC1)C2 (stereo partly drawn) [Example 659] |  | % inhibition of farnesyltransferase at 1 × 10^-5 M: 55%
33 | CSCC[C@H](NC(=O)c1ccc(CNCCC2CCCCC2)cc1-c1ccccc1)C(=O)O [Example 663] |  | % inhibition of farnesyltransferase at 1 × 10^-5 M: 43%
34 | C=C[C@@H](CC1CCCCC1)NCc1ccc(C(=O)N[C@@H](CCSC)C(=O)O)c(-c2ccccc2)c1 [Example 664] |  | % inhibition of farnesyltransferase at 1 × 10^-5 M: 75%

Now from value to compound, other results behind:

Row | % inhibition of farnesyltransferase at 1 × 10^-6 M [%] | Compound | other results
35 | 58 | CCOC(=O)c1ccc(NCc2ccc(C(=O)N[C@@H](CCSC)C(=O)O)c(-c3ccccc3)c2)cc1 [Example 646] | 
36 | 86 | CSCC[C@H](NC(=O)c1ccc(CN(CCC#N)Cc2ccccc2)cc1-c1ccccc1)C(=O)O [Example 649] | 
37 | 68 | COc1ccccc1CNCc1ccc(C(=O)N[C@@H](CCSC)C(=O)O)c(-c2ccccc2)c1 [Example 650] | 
38 | 41 | COc1cccc(CNCc2ccc(C(=O)N[C@@H](CCSC)C(=O)O)c(-c3ccccc3)c2)c1 [Example 652] | 
39 | 62 | CSCC[C@H](NC(=O)c1ccc(CNCc2ccc(N)cc2)cc1-c1ccccc1)C(=O)O [Example 653] | 
40 | 35 | COc1ccc(CNCc2ccc(C(=O)N[C@@H](CCSC)C(=O)O)c(-c3ccccc3)c2)c(OC)c1 [Example 655] | 
41 | 32 | CSCCC(NC(=O)c1ccc(CNC(CO)c2ccccc2)cc1-c1ccccc1)C(=O)O (stereo not drawn) [Example 657] | 
42 | 73 | CSCCC(NC(=O)c1ccc(CNC(CO)c2ccccc2)cc1-c1ccccc1)C(=O)O (stereo not drawn) [Example 658] | 
43 | 45 | CSCC[C@H](NC(=O)c1ccc(CNCC(O)c2cccc(O)c2)cc1-c1ccccc1)C(=O)O (stereo partly drawn) [Example 661] | 
44 | 68 | CSCC[C@H](NC(=O)c1ccc(CNC(CO)Cc2ccc(Cl)cc2)cc1-c1ccccc1)C(=O)O (stereo partly drawn) [Example 662] | 
45 | 55 | CSCC[C@H](NC(=O)c1ccc(CN[C@@H](/C=C\CC(C)C)CC2CCCCC2)cc1-c1ccccc1)C(=O)O [Example 665] | 
